According to patent publication US20250236619A1, “FUSED BICYCLIC COMPOUND CONTAINING PYRROLINONE” (CHIA TAI TIANQING PHARMACEUTICAL GROUP CO., LTD., priority 2022, published 2025):

What was measured:
[1] = system: p-SLP76 phosphorylation of Jurkat cells; assay: Assay for inhibitory activity against p-SLP76 phosphorylation of Jurkat cells; assay type: cell-based; conditions: stimulator CD3CD28, 30 min, read-out: IC50 (nM) for inhibition of p-SLP76 phosphorylation of Jurkat cells
Procedure: 2.1 Assay for Inhibitory Activity Against p-SLP76 Phosphorylation of Jurkat Cells
Jurkat cells in a good growth state were added to a centrifuge tube, centrifuged, and resuspended. The cell density was adjusted to 6.25×10^6 cells/mL, and the cells were seeded in a 384-well small-volume white plate at […]. Different compounds dissolved in DMSO were added to the wells using a nanoliter pipettor to obtain final concentrations of the compounds of 2500 nM to 10.29 nM, and a control was set; the wells were set in duplicate. After 1 h of cell culture, the stimulator CD3CD28 (manufacturer: stemcell, 4 μL) was added and the cells were incubated at 37° C. for 30 min. 3 μL of lysis buffer (manufacturer: BioAuxilium) was added to each well, and the plate was shaken at room temperature for 30 min. After the lysate was well mixed, 5 μL of pre-mixed antibody (manufacturer: BioAuxilium) in assay buffer was added and the plate was incubated overnight at room temperature. The signal values were measured on a PerkinElmer Envision multimode microplate reader (excitation: 320 nm, emission: 615 nm/665 nm), and IC50 was calculated by four-parameter filling.

HPK1 kinase = HPK1 kinase (Homo sapiens (Human), UniProt Q92918); assay: Assay for in vitro inhibitory activity against HPK1 kinase; assay type: biochemical; conditions: HPK1 1 ng/μL, ATP 1 mM, STK Substrate 1-biotin 500 nM
Procedure: Experimental Example 1: Assay for In Vitro Inhibitory Activity Against HPK1 Kinase A kinase buffer (Enzymatic buffer 5×) was diluted to 1×, and 10 mM MgCl2, 1 mM DTT, and 0.005% Tween 20 were added. A 100 ng/μL HPK1 (Life technology) stock solution was diluted with the kinase buffer to obtain a 1.67×, 1.67 ng/μL working solution (final concentration: 1 ng/μL), and the working solution was seeded in a 384-well plate at 6 μL/well. Different compounds dissolved in DMSO were added to the wells using a nanoliter pipettor to obtain final concentrations of the compounds of 1000 nM to 0.244 nM (4-fold serial dilution, 7 concentrations in total), and blank control wells (without enzyme) and negative control wells (with enzyme, plus vehicle DMSO) were set; the wells were set in duplicate. After the enzyme and the compounds were incubated at room temperature for 1 h, a 5×, 5 mM ATP dilution (final concentration: 1 mM) in the kinase buffer was mixed with a 5×, […] substrate (Cisbio, STK Substrate 1-biotin; final concentration: 500 nM) in equal volume, and the mixture was added to the plate at 4 µL/well. The plate was sealed with a film and then incubated at room temperature for 2 h. An assay antibody solution was prepared by mixing the antibody STK Antibody-cryptate (Cisbio, 5 μL/test) and a 4×, 500 nM Streptavidin-XL665 (Cisbio; final concentration: 125 nM) in equal volume and added to the plate at 10 μL/well. The plate was incubated at room temperature for 1 h. The signal values (excitation: […]) were measured using a PE Envision multimode microplate reader, and IC50 was calculated by four-parameter fitting.

HPK1 kinase, sequence (Q92918 whole entry): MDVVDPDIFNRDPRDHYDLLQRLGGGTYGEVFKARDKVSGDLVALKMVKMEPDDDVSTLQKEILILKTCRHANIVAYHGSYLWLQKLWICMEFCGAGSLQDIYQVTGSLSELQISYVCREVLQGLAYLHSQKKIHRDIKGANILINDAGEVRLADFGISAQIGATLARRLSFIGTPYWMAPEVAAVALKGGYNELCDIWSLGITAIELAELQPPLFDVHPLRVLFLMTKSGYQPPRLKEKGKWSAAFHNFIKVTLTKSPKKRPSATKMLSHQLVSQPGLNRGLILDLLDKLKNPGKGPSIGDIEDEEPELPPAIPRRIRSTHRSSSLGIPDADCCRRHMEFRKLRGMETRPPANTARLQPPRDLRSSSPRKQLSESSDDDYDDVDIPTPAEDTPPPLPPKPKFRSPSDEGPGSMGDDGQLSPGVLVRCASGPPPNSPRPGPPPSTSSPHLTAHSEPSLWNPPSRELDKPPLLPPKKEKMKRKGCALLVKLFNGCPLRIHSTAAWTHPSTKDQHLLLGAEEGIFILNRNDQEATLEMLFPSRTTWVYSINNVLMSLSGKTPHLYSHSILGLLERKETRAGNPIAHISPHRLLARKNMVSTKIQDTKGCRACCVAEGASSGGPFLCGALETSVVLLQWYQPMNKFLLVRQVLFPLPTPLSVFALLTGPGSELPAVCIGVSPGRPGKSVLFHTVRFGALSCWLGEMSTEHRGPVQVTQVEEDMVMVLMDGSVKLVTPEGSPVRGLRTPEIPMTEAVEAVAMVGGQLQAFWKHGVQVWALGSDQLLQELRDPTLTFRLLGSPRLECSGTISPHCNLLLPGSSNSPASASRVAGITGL

SMILES | IC50 [1] | IC50 (HPK1 kinase)
CN(C)Cc1nc(Nc2ccc(-c3cnn4c3CC3(CC3)C4)c3c2C(=O)NC3)ccc1N1CCN(C)C(=O)C1 [Compound I-75] | 50 to 100 nM | 3.4 nM
CN(C)Cc1nc(Nc2ccc(-c3cnc4ccc5occc5n34)c3c2C(=O)NC3)ccc1-c1ccn(C)c(=O)c1 [Compound I-77] | < 50 nM | 2.9 nM
CN(C)Cc1nc(Nc2ccc(-c3cnn4c3CC3(CC3)C4)c3c2C(=O)NC3)ccc1C1CCN(C)CC1 [Compound I-78] | 50 to 100 nM | 2.3 nM
CN(C)Cc1nc(Nc2ccc(-c3cnn4c3CC3(CC4)CC3)c3c2C(=O)NC3)ccc1[C@@H]1CCN(C)C(=O)C1 [I-71] | < 50 nM | 3.6 nM

Results, then the molecule that gave them:

IC50 [1] | IC50 (HPK1 kinase) | SMILES
< 50 nM | 3.7 nM | CN(C)Cc1nc(Nc2ccc(-c3cnc4cnc5occc5n34)c3c2C(=O)NC3)ccc1[C@H]1CCN(C)C(=O)C1 [Compound I-69]
< 50 nM | 3.7 nM | CN(C)Cc1nc(Nc2ccc(-c3cnc4ccc5occc5n34)c3c2C(=O)NC3)ccc1[C@H]1CCN(C)C(=O)C1 [Compound I-72]
< 50 nM | 2.9 nM | CN(C)Cc1nc(Nc2ccc(-c3cnc4ccc5occc5n34)c3c2C(=O)NC3)ccc1[C@@H]1CCN(C)C(=O)C1 [Compound I-73]
